In patent US20140080795A1, “NRF2 Deficiency Influences Susceptibility to Steroid Resistance via HDAC2 Reduction” (University of Rochester, priority 2010, published 2014):

Columns and labels:
MCP-1 = test: LPS-induced lung inflammation in mice: MCP-1 levels in lung tissue by ELISA; type: in vivo, mouse; details: Nrf2-/- mice, budesonide 1 and 3 mg/kg pretreatment
Method: Briefly, age-matched WT, Nrf2−/− and HDAC2−/− were exposed to aerosolized Escherichia coli LPS (1 mg/ml) for 8 minutes. Aerosolized saline-exposed mice were used as controls, and animals were sacrificed at 24 h post last exposure. […] Monocyte chemotactic protein 1 (MCP-1) levels were measured from mouse lung soluble protein by enzyme-linked immunosorbent assay (ELISA) with the duo-antibody kit (R & D Systems). Results were normalized to protein concentration per sample. […] Briefly, age-matched wild-type, Nrf2−/− and HDAC2−/− were exposed to aerosolized Escherichia coli LPS diluted to 1 mg/ml for 8 minutes. Aerosolized saline-exposed mice were used as controls and animals were sacrificed at 24 h post last exposure (Yao et al., Am J Respir Cell Mol Biol 39: 7-18 (2008)). […] Monocyte chemotactic protein 1 (MCP-1) levels were measured from mouse lung soluble protein by enzyme-linked immunosorbent assay (ELISA) with the MCP-1 duo-antibody kit (R & D Systems). Results were normalized to protein concentration per sample.

KC = test: LPS-induced lung inflammation in mice: KC levels in lung homogenates by ELISA; type: in vivo, mouse

SMILES: CCCC1O[C@@H]2C[C@H]3[C@@H]4CCC5=CC(=O)C=C[C@]5(C)[C@H]4[C@@H](O)C[C@]3(C)[C@]2(C(=O)CO)O1 (stereo partly drawn) [budesonide]
- LPS-induced release of MCP-1 in lung (MCP-1): no inhibitory effect
- KC release in lung (KC; HDAC2-/- mice, budesonide 3 mg/kg pretreatment): no significant effect
- LPS-induced release of KC in lung (KC; Nrf2-/- mice, budesonide 1 and 3 mg/kg pretreatment): no inhibitory effect
